# Experimental data from ChEMBL document CHEMBL5724914, “Linking interpersonal differences in gut microbiota composition and drug biotransformation activity” (2024).
# Details: human gut metagenome, 24 h, 2 µM
# Also: call rule not given here.
row,SMILES,Bacterial Biotransformation
1,O=C(Nc1ccccc1)OCC(CN1CCCCC1)OC(=O)Nc1ccccc1 (stereo not given) [DIPERODON],Compound metabolized
2,C[C@@H](CO)NC(=O)[C@@H]1C=C2c3cccc4[nH]cc(c34)C[C@H]2N(C)C1.O=C(O)/C=C\C(=O)O [ERGONOVINE MALEATE],Compound metabolized

# Assay: (§1) The drug is tested on Z-007 corresponding to rat gut metagenome with ENA study accession number: PRJEB37062 and ENA sample accession number: ERS12561807 for biotransformation under anaerobic condition. The drug concentrations were measured over 9 timepoints collected between 0 and 24 hours of incubation by liquid-chromatography-coupled mass spectrometry (LC–MS)
# Details: 2 µM
row,SMILES,Bacterial Biotransformation
1,O=C(Nc1ccccc1)OCC(CN1CCCCC1)OC(=O)Nc1ccccc1 (stereo not given) [DIPERODON],Compound NOT metabolized
2,C[C@@H](CO)NC(=O)[C@@H]1C=C2c3cccc4[nH]cc(c34)C[C@H]2N(C)C1.O=C(O)/C=C\C(=O)O [ERGONOVINE MALEATE],Compound NOT metabolized

# Assay: as §1, with “on WLS-240” for “on Z-007”, “to human” for “to rat”, “number: ERS12561773” for “number: ERS12561807”
# Details: 2 µM
row,SMILES,Bacterial Biotransformation
1,O=C(Nc1ccccc1)OCC(CN1CCCCC1)OC(=O)Nc1ccccc1 (stereo not given) [DIPERODON],Compound metabolized
2,C[C@@H](CO)NC(=O)[C@@H]1C=C2c3cccc4[nH]cc(c34)C[C@H]2N(C)C1.O=C(O)/C=C\C(=O)O [ERGONOVINE MALEATE],Compound metabolized

# Details: human gut metagenome, 24 h, 2 µM
# Remark: another data set of the same source
row,SMILES,Bacterial Biotransformation
1,O=C(Nc1ccccc1)OCC(CN1CCCCC1)OC(=O)Nc1ccccc1 (stereo not given) [DIPERODON],Compound metabolized
2,C[C@@H](CO)NC(=O)[C@@H]1C=C2c3cccc4[nH]cc(c34)C[C@H]2N(C)C1.O=C(O)/C=C\C(=O)O [ERGONOVINE MALEATE],Compound NOT metabolized

# Assay: as §1, with “on WLS-082” for “on Z-007”, “to human” for “to rat”, “number: ERS12561751” for “number: ERS12561807”
# Details: 2 µM
row,SMILES,Bacterial Biotransformation
1,O=C(Nc1ccccc1)OCC(CN1CCCCC1)OC(=O)Nc1ccccc1 (stereo not given) [DIPERODON],Compound metabolized
2,C[C@@H](CO)NC(=O)[C@@H]1C=C2c3cccc4[nH]cc(c34)C[C@H]2N(C)C1.O=C(O)/C=C\C(=O)O [ERGONOVINE MALEATE],Compound metabolized

# Details: human gut metagenome, 24 h, 2 µM
# Remark: another data set of the same source
row,SMILES,Bacterial Biotransformation
1,O=C(Nc1ccccc1)OCC(CN1CCCCC1)OC(=O)Nc1ccccc1 (stereo not given) [DIPERODON],Compound metabolized
2,C[C@@H](CO)NC(=O)[C@@H]1C=C2c3cccc4[nH]cc(c34)C[C@H]2N(C)C1.O=C(O)/C=C\C(=O)O [ERGONOVINE MALEATE],Compound metabolized

# Assay: as §1, with “on Z-003” for “on Z-007”, “to pig” for “to rat”, “number: ERS12561803” for “number: ERS12561807”
# Details: 2 µM
row,SMILES,Bacterial Biotransformation
1,O=C(Nc1ccccc1)OCC(CN1CCCCC1)OC(=O)Nc1ccccc1 (stereo not given) [DIPERODON],Compound metabolized
2,C[C@@H](CO)NC(=O)[C@@H]1C=C2c3cccc4[nH]cc(c34)C[C@H]2N(C)C1.O=C(O)/C=C\C(=O)O [ERGONOVINE MALEATE],Compound NOT metabolized

# Assay: as §1, with “Z-029” for “Z-007”, “ERS12561828” for “ERS12561807”
# Details: 2 µM
row,SMILES,Bacterial Biotransformation
1,O=C(Nc1ccccc1)OCC(CN1CCCCC1)OC(=O)Nc1ccccc1 (stereo not given) [DIPERODON],Compound NOT metabolized
2,C[C@@H](CO)NC(=O)[C@@H]1C=C2c3cccc4[nH]cc(c34)C[C@H]2N(C)C1.O=C(O)/C=C\C(=O)O [ERGONOVINE MALEATE],Compound NOT metabolized

# Details: human gut metagenome, 24 h, 2 µM
# Remark: another data set of the same source
row,SMILES,Bacterial Biotransformation
1,O=C(Nc1ccccc1)OCC(CN1CCCCC1)OC(=O)Nc1ccccc1 (stereo not given) [DIPERODON],Compound NOT metabolized
2,C[C@@H](CO)NC(=O)[C@@H]1C=C2c3cccc4[nH]cc(c34)C[C@H]2N(C)C1.O=C(O)/C=C\C(=O)O [ERGONOVINE MALEATE],Compound metabolized

# Details: human gut metagenome, 24 h, 2 µM
# Remark: another data set of the same source
row,SMILES,Bacterial Biotransformation
1,O=C(Nc1ccccc1)OCC(CN1CCCCC1)OC(=O)Nc1ccccc1 (stereo not given) [DIPERODON],Compound metabolized
2,C[C@@H](CO)NC(=O)[C@@H]1C=C2c3cccc4[nH]cc(c34)C[C@H]2N(C)C1.O=C(O)/C=C\C(=O)O [ERGONOVINE MALEATE],Compound metabolized

# Details: human gut metagenome, 24 h, 2 µM
# Remark: another data set of the same source
row,SMILES,Bacterial Biotransformation
1,O=C(Nc1ccccc1)OCC(CN1CCCCC1)OC(=O)Nc1ccccc1 (stereo not given) [DIPERODON],Compound NOT metabolized
2,C[C@@H](CO)NC(=O)[C@@H]1C=C2c3cccc4[nH]cc(c34)C[C@H]2N(C)C1.O=C(O)/C=C\C(=O)O [ERGONOVINE MALEATE],Compound metabolized

# Assay: as §1, with “on WLS-350” for “on Z-007”, “to human” for “to rat”, “number: ERS12561789” for “number: ERS12561807”
# Details: 2 µM
row,SMILES,Bacterial Biotransformation
1,O=C(Nc1ccccc1)OCC(CN1CCCCC1)OC(=O)Nc1ccccc1 (stereo not given) [DIPERODON],Compound metabolized
2,C[C@@H](CO)NC(=O)[C@@H]1C=C2c3cccc4[nH]cc(c34)C[C@H]2N(C)C1.O=C(O)/C=C\C(=O)O [ERGONOVINE MALEATE],Compound metabolized

# Assay: as §1, with “Z-005” for “Z-007”, “to” for “to rat gut”, “ERS12561805” for “ERS12561807”
# Details: 2 µM
row,SMILES,Bacterial Biotransformation
1,O=C(Nc1ccccc1)OCC(CN1CCCCC1)OC(=O)Nc1ccccc1 (stereo not given) [DIPERODON],Compound NOT metabolized
2,C[C@@H](CO)NC(=O)[C@@H]1C=C2c3cccc4[nH]cc(c34)C[C@H]2N(C)C1.O=C(O)/C=C\C(=O)O [ERGONOVINE MALEATE],Compound NOT metabolized

# Details: human gut metagenome, 24 h, 2 µM
# Remark: another data set of the same source
row,SMILES,Bacterial Biotransformation
1,O=C(Nc1ccccc1)OCC(CN1CCCCC1)OC(=O)Nc1ccccc1 (stereo not given) [DIPERODON],Compound metabolized
2,C[C@@H](CO)NC(=O)[C@@H]1C=C2c3cccc4[nH]cc(c34)C[C@H]2N(C)C1.O=C(O)/C=C\C(=O)O [ERGONOVINE MALEATE],Compound metabolized

# Details: human gut metagenome, 24 h, 2 µM
# Remark: another data set of the same source
row,SMILES,Bacterial Biotransformation
1,O=C(Nc1ccccc1)OCC(CN1CCCCC1)OC(=O)Nc1ccccc1 (stereo not given) [DIPERODON],Compound metabolized
2,C[C@@H](CO)NC(=O)[C@@H]1C=C2c3cccc4[nH]cc(c34)C[C@H]2N(C)C1.O=C(O)/C=C\C(=O)O [ERGONOVINE MALEATE],Compound metabolized

# Assay: as §1, with “Z-012” for “Z-007”, “to” for “to rat gut”, “ERS12561812” for “ERS12561807”
# Details: 2 µM
row,SMILES,Bacterial Biotransformation
1,O=C(Nc1ccccc1)OCC(CN1CCCCC1)OC(=O)Nc1ccccc1 (stereo not given) [DIPERODON],Compound NOT metabolized
2,C[C@@H](CO)NC(=O)[C@@H]1C=C2c3cccc4[nH]cc(c34)C[C@H]2N(C)C1.O=C(O)/C=C\C(=O)O [ERGONOVINE MALEATE],Compound NOT metabolized

# Assay: as §1, with “on Z-018” for “on Z-007”, “to pig” for “to rat”, “number: ERS12561817” for “number: ERS12561807”
# Details: 2 µM
row,SMILES,Bacterial Biotransformation
1,O=C(Nc1ccccc1)OCC(CN1CCCCC1)OC(=O)Nc1ccccc1 (stereo not given) [DIPERODON],Compound NOT metabolized
2,C[C@@H](CO)NC(=O)[C@@H]1C=C2c3cccc4[nH]cc(c34)C[C@H]2N(C)C1.O=C(O)/C=C\C(=O)O [ERGONOVINE MALEATE],Compound metabolized

# Details: human gut metagenome, 24 h, 2 µM
# Remark: another data set of the same source
row,SMILES,Bacterial Biotransformation
1,O=C(Nc1ccccc1)OCC(CN1CCCCC1)OC(=O)Nc1ccccc1 (stereo not given) [DIPERODON],Compound NOT metabolized
2,C[C@@H](CO)NC(=O)[C@@H]1C=C2c3cccc4[nH]cc(c34)C[C@H]2N(C)C1.O=C(O)/C=C\C(=O)O [ERGONOVINE MALEATE],Compound NOT metabolized

# Details: human gut metagenome, 24 h, 2 µM
# Remark: another data set of the same source
row,SMILES,Bacterial Biotransformation
1,O=C(Nc1ccccc1)OCC(CN1CCCCC1)OC(=O)Nc1ccccc1 (stereo not given) [DIPERODON],Compound metabolized
2,C[C@@H](CO)NC(=O)[C@@H]1C=C2c3cccc4[nH]cc(c34)C[C@H]2N(C)C1.O=C(O)/C=C\C(=O)O [ERGONOVINE MALEATE],Compound metabolized

# Details: human gut metagenome, 24 h, 2 µM
# Remark: another data set of the same source
row,SMILES,Bacterial Biotransformation
1,O=C(Nc1ccccc1)OCC(CN1CCCCC1)OC(=O)Nc1ccccc1 (stereo not given) [DIPERODON],Compound NOT metabolized
2,C[C@@H](CO)NC(=O)[C@@H]1C=C2c3cccc4[nH]cc(c34)C[C@H]2N(C)C1.O=C(O)/C=C\C(=O)O [ERGONOVINE MALEATE],Compound metabolized
